Measured values: article PMC9967013, “A Theranostic Small-Molecule Prodrug Conjugate for Neuroendocrine Prostate Cancer” (Pharmaceutics, 2023)
Read-outs that look alike come from different tables or passages of the source.

Legend:
PC3 cells = test: Cell viability assay (MTT); format: cell-based, human; details: OD 570 nm, read-out: EC50 (cytotoxicity)
Protocol: PC3 cells (3000–5000 cells/well) were seeded onto a 96-well plate. After one day, freshly prepared RPMI media containing different concentrations (0, 1, 5, 10 µM; n = 5) of FTY720 (Selleckchem, Houston, TX, USA) or compound 10 (0, 1, 3, 15, 30 µM; n = 5) were added to the cells, and the mixtures were incubated for 48 or 72 h. The relative number of viable cells was determined by an assay using 3-(4,5-dimethylthiazol-2-yl) -2,5-diphenyltetrazolium bromide (MTT) (Sigma-Aldrich, Saint-Louis, MO, USA), according to the manufacturer’s instructions, on a microplate reader at OD 570 nm. The experiment was repeated in triplicate, and data were represented as the mean ± standard deviation (s.d).

[1] = tested on: SSTR2^low PC3_sgPTP1B xenografts; test: Small animal PET/CT imaging, tumor uptake in SSTR2^low xenograft; details: same mice, i.v. 3–4.4 MBq, 60-min dynamic PET
[2] = tested on: SSTR2^high PC3_VC xenografts; test: Small animal PET/CT imaging, tumor uptake in SSTR2^high xenograft; details: same mice, i.v. 3–4.4 MBq, 60-min dynamic PET
human cathepsin B = molecular target: T1, human cathepsin B (Homo sapiens, UniProt P07858); test: In vitro cathepsin-B-mediated release assay; format: in vitro ADME; details: 37 °C, 1 h
T1 construct: purchased Sino Biological Inc
Protocol: A comparative cathepsin-B-mediated release assay was performed with compound 13 in the presence vs. absence of human cathepsin B (Sino Biological Inc., Chesterbrook, PA, USA). Briefly, compound 13 (150 µg) was dissolved in 60 µL of 100 mM citrate buffer (pH 5.5), followed by adding 300 µg of cysteine. Then, 20 µg of human cathepsin B in 40 µL of 100 mM citrate buffer was added to the mixture and incubated at 37 °C for 1 h. At the end of the incubation, the solution (20 µL) was sampled for HPLC and LC–MS analysis. Controls of this assay included compound 13 without being exposed to cathepsin B, as well as cathepsin B itself processed under the same conditions.

[3] = tested on: SSTR2^high AR42J and SSTR2^low PC3-Flu cells; test: SSTR2-selective cell uptake assay; format: cell-based; details: 1 h incubation at r.t., binding buffer (20 mM tris, 150 mM NaCl, pH 7.4), ~7.1 × 10^5 CPM, gamma counting, uptake in SSTR2^low cells set at 1, n = 3
SSTR2^high AR42J cells = test: Internalization assay; format: cell-based; details: after 60 min, ~5 × 10^5 CPM, acid strip (glycine pH 3.0), gamma counting, n = 3

Compound: CCCCCCCCc1ccc(CCC(CO)(CO)NC(=O)OCc2ccc(NC(=O)[C@H](CCCNC(N)=O)NC(=O)[C@@H](NC(=O)CCOCCOCCOCCN=[N+]=[N-])C(C)C)cc2)cc1 [Compound 10, Val-Cit-pABOC-FTY720]
- EC50 (PC3 cells; 48 h incubation): > 15 µM
- EC50 (PC3 cells; 72 h incubation): > 15 µM

Compound: CCCCCCCCc1ccc(CCC(N)(CO)CO)cc1 [FTY720, fingolimod, reference compound]
- EC50 (PC3 cells; Homo sapiens, PC-3, 48 h incubation): ~5 µM
- EC50 (PC3 cells; Homo sapiens, PC-3, 72 h incubation): ~5 µM

Compound: O=C([O-])CN(CCN(CC(=O)[O-])Cc1cc(CCC(=O)NCCCCCC(=O)NCCCC[C@H](NC(=O)N[C@@H](CCC(=O)O)C(=O)O)C(=O)O)ccc1[O-])Cc1cc(CCC(=O)O)ccc1[O-].[68Ga+3].[OH3+] [[^68Ga]Ga-PSMA-11]
- tumor uptake in SSTR2^low PC3_sgPTP1B tumors (in words) [1]: low uptake
- tumor uptake in SSTR2^high PC3-VC tumors (in words) [2]: low uptake

Compound: DOTA-PEG3-TZ(PEG4-Octr)-PEG2-Trz-PEG3-Val-Cit-pABOC-FTY720 (disulfide) [Compound 13]
- cathepsin-B-mediated release of FTY720 (human cathepsin B; 150 µg compound, 20 µg human cathepsin B, 100 mM citrate buffer pH 5.5, cysteine, HPLC and LC-MS read-out): cathepsin-B-mediated release of FTY720 was further confirmed
- release of FTY720 in the absence of cathepsin B (control) (human cathepsin B; same conditions without cathepsin B: 100 mM citrate buffer pH 5.5, cysteine, LC-MS read-out (FTY720 peak 366.0488 [M + 2H2O + Na]+)): the peak of 366.0488 was absent

Compound: [^64Cu]Cu-DOTA-PEG3-TZ(PEG4-Octr)-PEG2-Trz-PEG3-Val-Cit-pABOC-FTY720 (disulfide)
- normalized uptake, accumulation in SSTR2^high AR42J cells relative to SSTR2^low PC3-Flu cells [3]: six-fold higher
- internalized percentage (Internalized/Total Bound%) (SSTR2^high AR42J cells): approximately 40%
